Test results as given in paper PMC10838953.

What was measured:
FLT3(D835V) = FLT3(D835V) (Homo sapiens, UniProt P36888, D835V); assay: biochemical; conditions: read-out: %Ctrl @ 2000nM
MYLK2 = MYLK2 (Homo sapiens, UniProt Q9H1R3); assay: biochemical; conditions: read-out: %Ctrl @ 2000nM
[1] = system: 786-O, A549, MDA-MB-231, OVCAR-3, U373 MG
[2] = target: RSK1(Kin.Dom.1-N-terminal) (Homo sapiens, UniProt Q15418); assay: biochemical; conditions: read-out: %Ctrl @ 2000nM
p38-delta = p38-delta (Homo sapiens, UniProt O15264); assay: biochemical; conditions: read-out: %Ctrl @ 2000nM
Sequence of p38-delta (O15264 whole entry): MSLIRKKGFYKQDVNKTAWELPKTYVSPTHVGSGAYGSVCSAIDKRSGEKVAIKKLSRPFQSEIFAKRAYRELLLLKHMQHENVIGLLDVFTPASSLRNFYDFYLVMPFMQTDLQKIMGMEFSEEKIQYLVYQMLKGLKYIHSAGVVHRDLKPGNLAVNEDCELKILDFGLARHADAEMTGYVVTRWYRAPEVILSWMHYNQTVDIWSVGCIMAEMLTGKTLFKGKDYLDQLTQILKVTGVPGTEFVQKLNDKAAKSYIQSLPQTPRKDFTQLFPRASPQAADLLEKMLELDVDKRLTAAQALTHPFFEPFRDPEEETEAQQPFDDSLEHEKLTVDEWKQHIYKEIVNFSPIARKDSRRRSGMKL

TRKB = TRKB (Homo sapiens, UniProt Q16620); assay: biochemical; conditions: read-out: %Ctrl @ 2000nM
AXL = AXL (Homo sapiens, UniProt P30530); assay: biochemical; conditions: read-out: %Ctrl @ 2000nM
CK2 in HEK293 cells = conditions: read-out: IC50 CK2 activity in cell extracts
NEK5 = NEK5 (Homo sapiens, UniProt Q6P3R8); assay: biochemical; conditions: read-out: %Ctrl @ 2000nM
Sequence of NEK5 (Q6P3R8 whole entry): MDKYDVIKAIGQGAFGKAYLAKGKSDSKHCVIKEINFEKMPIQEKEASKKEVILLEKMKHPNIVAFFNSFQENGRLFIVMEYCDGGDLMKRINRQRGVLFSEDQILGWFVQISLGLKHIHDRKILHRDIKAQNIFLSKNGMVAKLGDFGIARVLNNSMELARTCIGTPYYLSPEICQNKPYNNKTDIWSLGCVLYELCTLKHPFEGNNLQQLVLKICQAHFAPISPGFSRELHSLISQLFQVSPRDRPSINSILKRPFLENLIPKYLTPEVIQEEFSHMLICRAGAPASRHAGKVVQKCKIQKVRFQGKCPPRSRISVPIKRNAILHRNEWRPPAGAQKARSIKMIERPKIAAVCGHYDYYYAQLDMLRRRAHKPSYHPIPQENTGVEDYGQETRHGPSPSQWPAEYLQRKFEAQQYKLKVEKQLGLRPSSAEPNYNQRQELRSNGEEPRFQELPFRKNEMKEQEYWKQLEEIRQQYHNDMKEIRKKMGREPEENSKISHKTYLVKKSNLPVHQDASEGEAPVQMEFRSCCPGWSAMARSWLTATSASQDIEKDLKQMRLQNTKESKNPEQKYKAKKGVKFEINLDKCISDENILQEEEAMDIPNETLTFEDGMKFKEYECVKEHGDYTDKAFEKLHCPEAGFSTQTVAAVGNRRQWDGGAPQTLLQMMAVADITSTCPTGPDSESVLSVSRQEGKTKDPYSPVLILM

[3] = target: ABL1(F317L)-nonphosphorylated (Homo sapiens, UniProt P00519, F317L); assay: biochemical; conditions: read-out: %Ctrl @ 2000nM
PFCDPK1(P.falciparum) = PFCDPK1(P.falciparum) (Plasmodium falciparum, UniProt P62344); assay: biochemical; conditions: read-out: %Ctrl @ 2000nM
MEK1 = MEK1 (Homo sapiens, UniProt Q02750); assay: biochemical; conditions: read-out: %Ctrl @ 2000nM
DMPK = DMPK (Homo sapiens, UniProt Q09013); assay: biochemical; conditions: read-out: %Ctrl @ 2000nM
PIK3CA(E545K) = PIK3CA(E545K) (Homo sapiens, UniProt P42336, E545K); assay: biochemical; conditions: read-out: %Ctrl @ 2000nM
p38-beta = p38-beta (Homo sapiens, UniProt Q15759); assay: biochemical; conditions: read-out: %Ctrl @ 2000nM
Sequence of p38-beta (Q15759 whole entry): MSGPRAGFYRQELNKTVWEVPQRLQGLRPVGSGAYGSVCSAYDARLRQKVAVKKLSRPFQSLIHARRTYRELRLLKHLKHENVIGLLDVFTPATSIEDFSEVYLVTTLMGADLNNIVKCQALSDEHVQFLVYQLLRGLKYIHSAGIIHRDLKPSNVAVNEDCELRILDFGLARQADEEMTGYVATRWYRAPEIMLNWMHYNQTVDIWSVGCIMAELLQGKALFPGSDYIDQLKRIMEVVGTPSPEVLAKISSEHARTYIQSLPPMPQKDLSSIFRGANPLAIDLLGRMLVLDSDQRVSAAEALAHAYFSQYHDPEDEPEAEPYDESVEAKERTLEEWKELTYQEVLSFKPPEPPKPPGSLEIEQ

SRMS = SRMS (Homo sapiens, UniProt Q9H3Y6); assay: biochemical; conditions: read-out: %Ctrl @ 2000nM
CAMK4 = CAMK4 (Homo sapiens, UniProt Q16566); assay: biochemical; conditions: read-out: %Ctrl @ 2000nM
Sequence of CAMK4 (Q16566 whole entry): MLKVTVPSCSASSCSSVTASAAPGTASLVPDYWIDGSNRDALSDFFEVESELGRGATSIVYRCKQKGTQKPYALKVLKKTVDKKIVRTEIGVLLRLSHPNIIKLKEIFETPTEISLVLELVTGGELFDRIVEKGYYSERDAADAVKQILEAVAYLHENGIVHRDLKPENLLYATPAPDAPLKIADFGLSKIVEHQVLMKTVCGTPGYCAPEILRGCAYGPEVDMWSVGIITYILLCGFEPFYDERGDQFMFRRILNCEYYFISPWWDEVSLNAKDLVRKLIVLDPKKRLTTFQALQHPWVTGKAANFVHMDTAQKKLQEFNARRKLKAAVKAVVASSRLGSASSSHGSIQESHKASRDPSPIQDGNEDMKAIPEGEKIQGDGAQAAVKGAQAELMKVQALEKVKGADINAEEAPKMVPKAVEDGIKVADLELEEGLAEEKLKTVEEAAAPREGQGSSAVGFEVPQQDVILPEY

PLK3 = PLK3 (Homo sapiens, UniProt Q9H4B4); assay: biochemical; conditions: read-out: %Ctrl @ 2000nM
EPHB2 = EPHB2 (Homo sapiens, UniProt P29323); assay: biochemical; conditions: read-out: %Ctrl @ 2000nM
Sequence of EPHB2 (P29323 19-1055): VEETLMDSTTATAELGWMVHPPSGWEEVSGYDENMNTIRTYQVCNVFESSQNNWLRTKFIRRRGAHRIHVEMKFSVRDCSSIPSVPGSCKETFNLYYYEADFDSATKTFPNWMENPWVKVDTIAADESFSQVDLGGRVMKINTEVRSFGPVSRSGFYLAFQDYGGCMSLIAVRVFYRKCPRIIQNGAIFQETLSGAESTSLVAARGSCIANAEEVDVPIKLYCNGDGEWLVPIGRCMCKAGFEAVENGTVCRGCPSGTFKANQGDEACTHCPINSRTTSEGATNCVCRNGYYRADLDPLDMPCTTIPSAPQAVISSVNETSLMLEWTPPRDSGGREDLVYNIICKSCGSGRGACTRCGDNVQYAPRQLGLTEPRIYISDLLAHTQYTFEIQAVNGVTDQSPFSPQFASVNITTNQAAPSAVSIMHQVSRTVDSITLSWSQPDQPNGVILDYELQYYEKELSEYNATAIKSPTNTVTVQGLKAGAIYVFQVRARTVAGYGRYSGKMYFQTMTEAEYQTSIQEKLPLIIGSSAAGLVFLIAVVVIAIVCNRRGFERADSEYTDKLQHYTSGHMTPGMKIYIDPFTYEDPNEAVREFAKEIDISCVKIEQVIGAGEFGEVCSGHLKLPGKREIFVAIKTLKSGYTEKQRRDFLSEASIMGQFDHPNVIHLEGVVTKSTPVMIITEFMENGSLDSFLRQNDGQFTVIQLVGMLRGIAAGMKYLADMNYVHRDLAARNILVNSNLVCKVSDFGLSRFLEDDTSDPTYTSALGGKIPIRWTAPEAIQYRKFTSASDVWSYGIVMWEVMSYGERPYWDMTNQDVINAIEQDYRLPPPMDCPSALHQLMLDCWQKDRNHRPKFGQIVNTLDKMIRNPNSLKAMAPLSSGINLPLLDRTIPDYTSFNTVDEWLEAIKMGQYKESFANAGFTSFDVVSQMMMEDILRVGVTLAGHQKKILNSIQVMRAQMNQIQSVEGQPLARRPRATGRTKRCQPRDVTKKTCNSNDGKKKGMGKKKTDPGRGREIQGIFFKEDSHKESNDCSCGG

MAP3K15 = MAP3K15 (Homo sapiens, UniProt Q6ZN16); assay: biochemical; conditions: read-out: %Ctrl @ 2000nM
IKK-epsilon = IKK-epsilon (Homo sapiens, UniProt Q14164); assay: biochemical; conditions: read-out: %Ctrl @ 2000nM
TLK1 = TLK1 (Homo sapiens, UniProt Q9UKI8); assay: biochemical; conditions: read-out: %Ctrl @ 2000nM
CDK2 = CDK2 (Homo sapiens, UniProt P24941); assay: biochemical; conditions: read-out: %Ctrl @ 2000nM
DAPK3 = DAPK3 (Homo sapiens, UniProt O43293); assay: biochemical; conditions: read-out: %Ctrl @ 2000nM
WEE2 = WEE2 (Homo sapiens, UniProt P0C1S8); assay: biochemical; conditions: read-out: %Ctrl @ 2000nM
IGF1R = IGF1R (Homo sapiens, UniProt P08069); assay: biochemical; conditions: read-out: %Ctrl @ 2000nM
CDK5 = CDK5 (Homo sapiens, UniProt Q00535); assay: biochemical; conditions: read-out: %Ctrl @ 2000nM
Sequence of CDK5 (Q00535 whole entry): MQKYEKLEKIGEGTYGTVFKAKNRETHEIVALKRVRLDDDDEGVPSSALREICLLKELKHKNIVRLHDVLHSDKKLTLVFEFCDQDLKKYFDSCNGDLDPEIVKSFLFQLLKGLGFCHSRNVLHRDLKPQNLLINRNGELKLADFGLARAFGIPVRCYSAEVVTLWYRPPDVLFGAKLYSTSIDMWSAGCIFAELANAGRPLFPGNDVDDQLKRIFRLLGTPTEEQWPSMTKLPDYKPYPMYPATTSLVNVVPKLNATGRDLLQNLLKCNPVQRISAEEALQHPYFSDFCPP

PAK4 = PAK4 (Homo sapiens, UniProt O96013); assay: biochemical; conditions: read-out: %Ctrl @ 2000nM
NEK7 = NEK7 (Homo sapiens, UniProt Q8TDX7); assay: biochemical; conditions: read-out: %Ctrl @ 2000nM
AMPK-alpha1 = AMPK-alpha1 (Homo sapiens, UniProt Q13131); assay: biochemical; conditions: read-out: %Ctrl @ 2000nM
EGFR(S752-I759del) = EGFR(S752-I759del) (Homo sapiens, UniProt P00533, DEL752-759); assay: biochemical; conditions: read-out: %Ctrl @ 2000nM
PKN2 = PKN2 (Homo sapiens, UniProt Q16513); assay: biochemical; conditions: read-out: %Ctrl @ 2000nM
Sequence of PKN2 (Q16513 whole entry): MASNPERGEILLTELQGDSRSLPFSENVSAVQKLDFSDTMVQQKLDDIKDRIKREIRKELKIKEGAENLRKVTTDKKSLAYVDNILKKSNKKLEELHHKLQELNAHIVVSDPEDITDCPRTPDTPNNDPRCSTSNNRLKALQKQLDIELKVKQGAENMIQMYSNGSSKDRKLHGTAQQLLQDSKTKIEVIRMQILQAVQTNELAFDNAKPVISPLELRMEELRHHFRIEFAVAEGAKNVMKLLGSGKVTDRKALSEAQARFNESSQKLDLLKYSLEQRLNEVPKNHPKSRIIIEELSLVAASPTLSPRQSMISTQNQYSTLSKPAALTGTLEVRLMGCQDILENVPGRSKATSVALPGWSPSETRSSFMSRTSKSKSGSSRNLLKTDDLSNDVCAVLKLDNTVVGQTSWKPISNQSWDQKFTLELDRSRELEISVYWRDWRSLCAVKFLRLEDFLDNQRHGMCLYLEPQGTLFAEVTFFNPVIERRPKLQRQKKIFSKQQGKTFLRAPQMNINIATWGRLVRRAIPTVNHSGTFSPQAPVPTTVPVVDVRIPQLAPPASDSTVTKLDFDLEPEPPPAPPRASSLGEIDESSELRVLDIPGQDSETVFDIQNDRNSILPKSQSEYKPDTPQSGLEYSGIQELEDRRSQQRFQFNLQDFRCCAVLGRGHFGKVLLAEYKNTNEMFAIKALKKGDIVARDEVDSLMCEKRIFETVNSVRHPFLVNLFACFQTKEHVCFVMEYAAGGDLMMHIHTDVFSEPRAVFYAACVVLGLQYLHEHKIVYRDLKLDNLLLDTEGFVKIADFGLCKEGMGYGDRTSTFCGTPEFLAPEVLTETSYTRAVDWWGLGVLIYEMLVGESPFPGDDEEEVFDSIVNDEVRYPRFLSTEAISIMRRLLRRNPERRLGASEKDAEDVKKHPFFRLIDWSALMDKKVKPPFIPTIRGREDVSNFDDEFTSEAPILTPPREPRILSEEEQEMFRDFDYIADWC

EGFR(L861Q) = EGFR(L861Q) (Homo sapiens, UniProt P00533, L861Q); assay: biochemical; conditions: read-out: %Ctrl @ 2000nM
KIT(D816V) = KIT(D816V) (Homo sapiens, UniProt P10721, D816V); assay: biochemical; conditions: read-out: %Ctrl @ 2000nM
NEK4 = NEK4 (Homo sapiens, UniProt P51957); assay: biochemical; conditions: read-out: %Ctrl @ 2000nM
TTK = TTK (Homo sapiens, UniProt P33981); assay: biochemical; conditions: read-out: %Ctrl @ 2000nM
CSNK2A2 (CK2α′) = CSNK2A2 (CK2α′) (Homo sapiens, UniProt P19784); assay: biochemical
Sequence of CSNK2A2 (CK2α′) (P19784 whole entry): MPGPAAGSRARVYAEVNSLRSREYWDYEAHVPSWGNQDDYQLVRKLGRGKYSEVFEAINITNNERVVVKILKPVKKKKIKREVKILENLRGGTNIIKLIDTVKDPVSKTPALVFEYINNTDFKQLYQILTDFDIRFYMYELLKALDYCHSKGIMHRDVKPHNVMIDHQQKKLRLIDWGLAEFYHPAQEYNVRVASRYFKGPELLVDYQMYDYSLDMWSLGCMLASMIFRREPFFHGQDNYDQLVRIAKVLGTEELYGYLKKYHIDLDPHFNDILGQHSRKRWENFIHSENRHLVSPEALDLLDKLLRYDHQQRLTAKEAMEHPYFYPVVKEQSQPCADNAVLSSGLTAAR

PKNB(M.tuberculosis) = PKNB(M.tuberculosis) (Mycobacterium tuberculosis, UniProt P9WI81); assay: biochemical; conditions: read-out: %Ctrl @ 2000nM
ULK1 = ULK1 (Homo sapiens, UniProt O75385); assay: biochemical; conditions: read-out: %Ctrl @ 2000nM

Sequence of RSK1(Kin.Dom.1-N-terminal) (Q15418 1-391 limits assumed): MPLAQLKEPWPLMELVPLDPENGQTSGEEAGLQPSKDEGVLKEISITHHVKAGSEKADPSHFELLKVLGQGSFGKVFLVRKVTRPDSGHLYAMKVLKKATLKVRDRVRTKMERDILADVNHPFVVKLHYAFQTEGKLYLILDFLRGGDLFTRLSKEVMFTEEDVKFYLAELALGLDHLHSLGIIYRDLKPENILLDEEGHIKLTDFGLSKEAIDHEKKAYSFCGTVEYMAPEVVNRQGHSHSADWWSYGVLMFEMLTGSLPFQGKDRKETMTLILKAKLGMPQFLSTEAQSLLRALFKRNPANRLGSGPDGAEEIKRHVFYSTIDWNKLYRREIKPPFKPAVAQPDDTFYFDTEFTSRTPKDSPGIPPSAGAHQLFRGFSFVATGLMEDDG

CC(C)COC(=O)c1[nH]c2ccc(F)cc2c1-c1cn(CC2CCN(CCNS(=O)(=O)c3ccc(CC(C)C)cc3)CC2)nn1 [AB668, isobutyl 5-fluoro-3-(1-((1-(2-((4-isobutylphenyl)sulfonamido)ethyl)piperidin-4-yl)methyl)-1H-1,2,3-triazol-4-yl)-1H-indole-2-carboxylate]
remaining activity at 2 µM (FLT3(D835V)): 94% | %Ctrl @ 2000nM (FLT3(ITD,F691L)): 96% | remaining activity at 2 µM (MYLK2): 96% | cell death in various cancer cells [1]: broad effect on cell death | remaining activity at 2 µM [2]: 100% | remaining activity at 2 µM (p38-delta): 96% | remaining activity at 2 µM (TRKB): 87% | remaining activity at 2 µM (AXL): 100% | IC50 (CK2 in HEK293 cells): 600 ± 110 nM | remaining activity at 2 µM (NEK5): 84% | remaining activity at 2 µM [3]: 88% | remaining activity at 2 µM (PFCDPK1(P.falciparum)): 81% | remaining activity at 2 µM (MEK1): 97% | remaining activity at 2 µM (DMPK): 90% | remaining activity at 2 µM (PIK3CA(E545K)): 88% | remaining activity at 2 µM (p38-beta): 74% | remaining activity at 2 µM (SRMS): 93% | remaining activity at 2 µM (CAMK4): 100% | remaining activity at 2 µM (PLK3): 93% | remaining activity at 2 µM (EPHB2): 98% | remaining activity at 2 µM (MAP3K15): 51% | remaining activity at 2 µM (IKK-epsilon): 76% | remaining activity at 2 µM (TLK1): 100% | remaining activity at 2 µM (CDK2): 90% | remaining activity at 2 µM (DAPK3): 100% | remaining activity at 2 µM (WEE2): 95% | remaining activity at 2 µM (IGF1R): 73% | remaining activity at 2 µM (CDK5): 99% | remaining activity at 2 µM (PAK4): 95% | remaining activity at 2 µM (NEK7): 93% | remaining activity at 2 µM (AMPK-alpha1): 99% | remaining activity at 2 µM (EGFR(S752-I759del)): 80% | remaining activity at 2 µM (PKN2): 85% | remaining activity at 2 µM (EGFR(L861Q)): 79% | remaining activity at 2 µM (KIT(D816V)): 95% | remaining activity at 2 µM (NEK4): 86% | remaining activity at 2 µM (TTK): 85% | remaining activity at 2 µM (CSNK2A2 (CK2α′); read-out: %Ctrl @ 2000nM): 19% | inhibition at 2 µM (CSNK2A2 (CK2α′); read-out: inhibition (KINOMEscan profiling)): 81% | remaining activity at 2 µM (PKNB(M.tuberculosis)): 100% | remaining activity at 2 µM (ULK1): 77%
